Measurements taken from patent US10239843B2 (CANCER RESEARCH TECHNOLOGY LIMITED, priority 2014, dated 2019).
Where two headings read alike, the source gives them in different places.

Legend:
[1] = tested on: PARG in HeLa cell line; test: PARG cell assay (PAR chain immunofluorescence after MMS); type: cell-based; details: HeLa cells
Method: This method is based on the detection of endogenous levels of poly (ADP) ribose chains present in the nucleus of HeLa cell line using indirect immunofluorescence. MMS stimulation increases PAR chains for up to 25 mins. After that point, PARG is active and breaks down the PAR chains, until by one hour after stimulation no PAR chains are detectable. Inhibition of PARG maintains PAR chains.
Briefly, following compound treatment and treatment with the DNA damaging agent methylmethanesulfonate (MMS), the cell monolayer is fixed, then permeabilised and incubated with a mouse monoclonal antibody raised against multimers of poly(ADP) ribose.
At the end of the 1 h dosing period, MMS was added to duplicates at a final concentration of 50 μg/mL, for a further hour.
Media was tipped off and the cells fixed with 50 μL ice-cold 95% MetOH/PBS for 15 mins at −20° C. Following a PBS wash, 50 μL PBS/0.1% Triton was added to the cells for 20 mins. Following another PBS wash, anti-PAR antibody (Calbiochem AM80) was diluted 1:4000 in a buffer (PBS+0.5% FBS+0.05% Tween20) and added to the cells and incubated overnight at 4° C.
Cells were washed three times with PBS and the plate sealed with a light-proof seal.

[2] = target: Human Full Length PARG (Homo sapiens (Human), UniProt Q86W56); test: PARG enzyme assay (TR-FRET); type: biochemical
Chain of Human Full Length PARG (Q86W56 whole entry): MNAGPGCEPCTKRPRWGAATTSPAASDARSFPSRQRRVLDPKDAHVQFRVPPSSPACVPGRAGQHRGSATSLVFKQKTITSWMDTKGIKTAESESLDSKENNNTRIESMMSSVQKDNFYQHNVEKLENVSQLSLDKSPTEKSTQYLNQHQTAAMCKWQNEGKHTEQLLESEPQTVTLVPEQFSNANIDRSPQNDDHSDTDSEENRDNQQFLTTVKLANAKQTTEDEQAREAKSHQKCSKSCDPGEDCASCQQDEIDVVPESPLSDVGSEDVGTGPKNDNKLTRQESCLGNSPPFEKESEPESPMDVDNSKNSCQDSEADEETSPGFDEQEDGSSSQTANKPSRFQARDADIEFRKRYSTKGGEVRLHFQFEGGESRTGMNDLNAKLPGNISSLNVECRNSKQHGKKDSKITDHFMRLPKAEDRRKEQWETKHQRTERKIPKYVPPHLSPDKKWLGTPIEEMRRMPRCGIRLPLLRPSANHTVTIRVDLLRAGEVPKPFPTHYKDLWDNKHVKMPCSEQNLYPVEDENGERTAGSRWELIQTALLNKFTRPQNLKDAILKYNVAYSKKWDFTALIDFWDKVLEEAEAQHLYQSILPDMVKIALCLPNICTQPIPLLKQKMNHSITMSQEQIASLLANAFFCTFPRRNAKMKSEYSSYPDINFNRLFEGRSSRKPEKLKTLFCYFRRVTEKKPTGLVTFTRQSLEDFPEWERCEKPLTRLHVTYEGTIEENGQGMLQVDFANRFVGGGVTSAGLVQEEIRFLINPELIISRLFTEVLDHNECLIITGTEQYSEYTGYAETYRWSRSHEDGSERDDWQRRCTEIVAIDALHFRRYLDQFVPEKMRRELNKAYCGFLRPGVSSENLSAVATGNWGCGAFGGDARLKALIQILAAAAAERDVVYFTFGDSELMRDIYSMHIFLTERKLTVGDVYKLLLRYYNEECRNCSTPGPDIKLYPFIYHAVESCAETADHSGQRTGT

[3] = Homo sapiens, MMS 50 μg/mL, read-out: PARG Cell IC50 Geomean
[4] = read-out: PARG Biochem IC50 Geomean
[5] = MMS 50 μg/mL, read-out: PARG Cell IC50 Geomean
[6] = Homo sapiens, MMS treatment, read-out: PARG Cell IC50

| IC50 [1, 3] | IC50 [2, 4] | Molecule | further results |
| --- | --- | --- | --- |
|  | 100 nM | COc1cccc(Cn2c(=O)n(Cc3cnn(C)c3)c(=O)c3cc(S(=O)(=O)NC4(C)CC4)ccc32)c1 [Example 172] | IC50 [1, 5]: 193 nM |
| 56 nM |  | Cn1cc(Cn2c(=O)c3cc(S(=O)(=O)NC4(C)CC4)ccc3n(CC3CC3)c2=O)cn1 [Example 174] |  |
| 85 nM | 89 nM | Cc1ncc(Cn2c(=O)c3cc(S(=O)(=O)NC4(C)CC4)ccc3n(Cc3ccc(F)cc3)c2=O)s1 [Example 176] |  |
| 126 nM | 52 nM | C#CCn1c(=O)n(Cc2cnn(C)c2)c(=O)c2cc(S(=O)(=O)NC3(C)CC3)ccc21 [Example 178] |  |
| 680 nM | 447 nM | CCn1cc(Cn2c(=O)c3cc(S(=O)(=O)NC4(C)CC4)ccc3n(C)c2=O)cn1 [Example 181] |  |
| 931 nM | 379 nM | Cn1c(=O)n(Cc2cn[nH]c2)c(=O)c2cc(S(=O)(=O)NC3(C)CC3)ccc21 [Example 183, 1-methyl-N-(1-methylcyclopropyl)-2,4-dioxo-3-(1H-pyrazol-4-ylmethyl)quinazoline-6-sulfonamide] |  |
| 307 nM | 441 nM | CC1(NS(=O)(=O)c2ccc3c(c2)c(=O)n(CC#N)c(=O)n3Cc2ccc(F)cc2)CC1 [Example 186] |  |
| 343 nM | 467 nM | COc1cccc(Cn2c(=O)n(CC#N)c(=O)c3cc(S(=O)(=O)NC4(C)CC4)ccc32)c1 [Example 187] |  |
|  | 274 nM | Cc1cc(Cn2c(=O)n(CC#N)c(=O)c3cc(S(=O)(=O)NC4(C)CC4)ccc32)n(C)n1 [Example 192] | IC50 [1, 5]: 1100 nM |
| 556 nM | 277 nM | CC1(NS(=O)(=O)c2ccc3c(c2)c(=O)n(CC#N)c(=O)n3CC2CC2)CC1 [Example 193] |  |
|  | 245 nM | C#CCn1c(=O)n(CC#N)c(=O)c2cc(S(=O)(=O)NC3(C)CC3)ccc21 [Example 194] | IC50 [1, 5]: 273 nM |
| 49 nM | 55 nM | Cc1cc(Cn2c(=O)c3cc(S(=O)(=O)NC4(C)CC4)ccc3n(CC3CC3)c2=O)on1 [Example 197] |  |
| 76 nM | 105 nM | C#CCn1c(=O)n(Cc2cc(C)no2)c(=O)c2cc(S(=O)(=O)NC3(C)CC3)ccc21 [Example 198] |  |
|  | 92 nM | Cc1cc(Cn2c(=O)c3cc(S(=O)(=O)NC4(C)CC4)ccc3n(Cc3ccc(F)cc3)c2=O)on1 [Example 199] | IC50 [1, 5]: 99 nM |
| 223 nM | 250 nM | COc1cccc(Cn2c(=O)n(Cc3cc(C)no3)c(=O)c3cc(S(=O)(=O)NC4(C)CC4)ccc32)c1 [Example 200] |  |
| 608 nM |  | Cc1cc(Cn2c(=O)c3cc(S(=O)(=O)NC4(C)CC4)ccc3n(CC3CC(C)(C)O3)c2=O)on1 (stereo not shown) [Example 352] |  |
| 218 nM |  | Cn1cc(Cn2c(=O)c3cc(S(=O)(=O)NC4(C)CC4)ccc3n(CC3CN(C(=O)OC(C)(C)C)C3)c2=O)cn1 [Example 365] |  |

The remaining lines, values behind:

| Molecule | IC50 [1, 3] | IC50 [2, 4] | further results |
| --- | --- | --- | --- |
| 1-[(2,5-Dimethylpyrazol-3-yl)methyl]-3-[(1-methylpyrazol-4-yl)methyl]-2,4-dioxo-N-[1-(trideuteriomethyl)cyclopropyl]quinazoline-6-sulfonamide [Example 490] |  |  | IC50 ([1]; MMS treatment, read-out: PARG Cell IC50): 70 nM |
| Cn1c(=O)c2cc(S(=O)(=O)NC3(C)CC3)ccc2n(CC2CC2)c1=O [Example 23] | 519 nM |  |  |
| CC1CC1Cn1c(=O)n(C)c(=O)c2cc(S(=O)(=O)NC3(C)CC3)ccc21 (stereo not shown) [Example 35] | 409 nM | 246 nM |  |
| Cn1c(=O)c2cc(S(=O)(=O)NC3(C)CC3)ccc2n(CC2CC2(F)F)c1=O (stereo not shown) [Example 36] | 591 nM |  |  |
| COc1ccc(Cn2c(=O)n(C)c(=O)c3cc(S(=O)(=O)NC4(C)CC4)ccc32)cc1 [Example 61] | 199 nM | 454 nM |  |
| Cn1c(=O)c2cc(S(=O)(=O)NC3(C)CC3)ccc2n(Cc2ccccc2C#N)c1=O [Example 68] | 306 nM | 324 nM |  |
| Cc1ncc(Cn2c(=O)c3cc(S(=O)(=O)NC4(C)CC4)ccc3n(C)c2=O)s1 [Example 109] | 288 nM | 483 nM |  |
| Cc1noc(C)c1Cn1c(=O)c2cc(S(=O)(=O)NC3(C)CC3)ccc2n(C)c1=O [Example 115] | 386 nM | 616 nM |  |
| Cc1ncc(Cn2c(=O)n(C)c(=O)c3cc(S(=O)(=O)NC4(C)CC4)ccc32)s1 [Example 126] | 214 nM | 240 nM |  |
| Cc1cc(Cn2c(=O)n(C)c(=O)c3cc(S(=O)(=O)NC4(C)CC4)ccc32)n(C)n1 [Example 127] | 413 nM | 384 nM |  |
| CCC#CCn1c(=O)n(C)c(=O)c2cc(S(=O)(=O)NC3(C)CC3)ccc21 [Example 137] | 608 nM |  |  |
| Cn1c(=O)c2cc(S(=O)(=O)NC3(C)CC3)ccc2n(Cc2cncs2)c1=O [Example 143] |  | 342 nM | IC50 [1, 5]: 538 nM |
| Cn1c(=O)c2cc(S(=O)(=O)NC3(C)CC3)ccc2n(Cc2cnc(Cl)s2)c1=O [Example 145] | 342 nM | 151 nM |  |
| Cn1nc(C(C)(C)C)cc1Cn1c(=O)n(C)c(=O)c2cc(S(=O)(=O)NC3(C)CC3)ccc21 [Example 149] | 518 nM | 293 nM |  |
| Cn1cc(Cn2c(=O)n(C)c(=O)c3cc(S(=O)(=O)NC4(C)CC4)ccc32)cn1 [Example 152] | 520 nM | 463 nM |  |
| Cc1ncc(Cn2c(OCC3CC3)nc3ccc(S(=O)(=O)NC4(C)CC4)cc3c2=O)s1 [Example 157] | 138 nM | 302 nM |  |

| Molecule | IC50 [1, 3] | IC50 [2, 4] | further results |
| --- | --- | --- | --- |
| C#CCn1c(=O)n(Cc2c(C)noc2C)c(=O)c2cc(S(=O)(=O)NC3(C)CC3)ccc21 [Example 159] | 153 nM | 109 nM |  |
| Cc1cc(COc2nc3ccc(S(=O)(=O)NC4(C)CC4)cc3c(=O)n2Cc2cnc(C)s2)n(C)n1 [Example 164] |  | 343 nM | IC50 [1, 5]: 782 nM |
| Cc1cc(Cn2c(=O)n(Cc3c(C)noc3C)c(=O)c3cc(S(=O)(=O)NC4(C)CC4)ccc32)n(C)n1 [Example 166] | 229 nM | 131 nM |  |
| Cc1noc(C)c1Cn1c(=O)c2cc(S(=O)(=O)NC3(C)CC3)ccc2n(Cc2ccc(F)cc2)c1=O [Example 168] | 146 nM | 160 nM |  |
| COc1cccc(Cn2c(=O)n(Cc3c(C)noc3C)c(=O)c3cc(S(=O)(=O)NC4(C)CC4)ccc32)c1 [Example 169] |  | 294 nM | IC50 [1, 5]: 288 nM |
| Cc1nc(C)c(Cn2c(=O)n(Cc3cnn(C)c3)c(=O)c3cc(S(=O)(=O)NC4(C)CC4)ccc32)s1 [Example 170] | 20 nM | 6 nM |  |
| Cn1cc(Cn2c(=O)c3cc(S(=O)(=O)NC4(C)CC4)ccc3n(Cc3ccc(F)cc3)c2=O)cn1 [Example 171] | 103 nM | 49 nM |  |
| Cc1cc2cc(S(=O)(=O)NC3(C)CC3)ccc2n(CC2CC2)c1=O [Example 426, 1-(Cyclopropylmethyl)-3-methyl-N-(1-methylcyclopropyl)-2-oxo-quinoline-6-sulfonamide] |  |  | IC50 [1, 6]: 1400 nM |
| Cn1cc(Cn2c(=O)[nH]c3ccc(S(=O)(=O)NC4(C)CC4)cc3c2=O)cn1 [Example 430, N-(1-Methylcyclopropyl)-3-[(1-methylpyrazol-4-yl)methyl]-2,4-dioxo-1H-quinazoline-6-sulfonamide] |  |  | IC50 [1, 6]: 1080 nM |
| Cn1c(=O)n(Cc2ccno2)c(=O)c2cc(S(=O)(=O)NC3(CF)CC3)ccc21 [Example 513, N-[1-(Fluoromethyl)cyclopropyl]-3-(isoxazol-5-ylmethyl)-1-methyl-2,4-dioxo-quinazoline-6-sulfonamide] |  |  | IC50 [1, 6]: 534 nM |
| Cc1cc(Cn2c(=O)c3cc(S(=O)(=O)NC4(CF)CC4)ccc3n(CCF)c2=O)on1 [Example 526, 1-(2-Fluoroethyl)-N-[1-(fluoromethyl)cyclopropyl]-3-[(3-methylisoxazol-5-yl)methyl]-2,4-dioxo-quinazoline-6-sulfonamide] |  |  | IC50 [1, 6]: 133 nM |
| Cn1c(=O)n(CC(=O)c2cccs2)c(=O)c2cc(S(=O)(=O)NC3(C)CC3)ccc21 [Example 529, 1-Methyl-N-(1-methylcyclopropyl)-2,4-dioxo-3-[2-oxo-2-(2-thienyl)ethyl]quinazoline-6-sulfonamide] |  |  | IC50 ([2]; read-out: PARG Biochem IC50): 1050 nM |
| Cn1c(=O)n(CC(=O)c2ccccc2)c(=O)c2cc(S(=O)(=O)NC3(C)CC3)ccc21 [Example 530, 1-Methyl-N-(1-methylcyclopropyl)-2,4-dioxo-3-phenacyl-quinazoline-6-sulfonamide] |  |  | IC50 ([2]; read-out: PARG Biochem IC50): 1610 nM |
| Cn1c(=O)n(CC(=O)c2ccc(C#N)cc2)c(=O)c2cc(S(=O)(=O)NC3(C)CC3)ccc21 [Example 531, 3-[2-(4-Cyanophenyl)-2-oxo-ethyl]-1-methyl-N-(1-methylcyclopropyl)-2,4-dioxo-quinazoline-6-sulfonamide] |  |  | IC50 ([2]; read-out: PARG Biochem IC50): 3270 nM |
| Cn1c(=O)n(Cc2cncs2)c(=O)c2cc(S(=O)(=O)NC3(CF)CC3)ccc21 [Example 534, N-[1-(Fluoromethyl)cyclopropyl]-1-methyl-2,4-dioxo-3-(thiazol-5-ylmethyl)quinazoline-6-sulfonamide] |  |  | IC50 ([2]; read-out: PARG Biochem IC50): 578 nM |
| Cc1cc(Cn2c(=O)n(Cc3nnc(C)s3)c(=O)c3cc(S(=O)(=O)NC4(CF)CC4)ccc32)n(C)n1 [Example 603, 1-[(2,5-Dimethylpyrazol-3-yl)methyl]-N-[1-(fluoromethyl)cyclopropyl]-3-[(5-methyl-1,3,4-thiadiazol-2-yl)methyl]-2,4-dioxo-quinazoline-6-sulfonamide] |  |  | IC50 [1, 6]: 496 nM |
